Data on 26 compounds can be found in patent US20080234266A1, “Squaric Acid Derivatives II” (priority 2005, published 2008).

As a reminder, the pIC50 is the IC50 on a negative log10 scale, so that one unit is a factor of ten.

pIC50: −log10 of the molar value. Where only a bound is given, the exact number is not on record here.

In the assay the target is T1, CHK1 kinase (Homo sapiens, UniProt O14757).
T1 construct: glutathione S-transferase (GST); made in house; host or cells: Sf21 insect cells (S. frugiperda), baculovirus
T1 sequence (O14757 1-476): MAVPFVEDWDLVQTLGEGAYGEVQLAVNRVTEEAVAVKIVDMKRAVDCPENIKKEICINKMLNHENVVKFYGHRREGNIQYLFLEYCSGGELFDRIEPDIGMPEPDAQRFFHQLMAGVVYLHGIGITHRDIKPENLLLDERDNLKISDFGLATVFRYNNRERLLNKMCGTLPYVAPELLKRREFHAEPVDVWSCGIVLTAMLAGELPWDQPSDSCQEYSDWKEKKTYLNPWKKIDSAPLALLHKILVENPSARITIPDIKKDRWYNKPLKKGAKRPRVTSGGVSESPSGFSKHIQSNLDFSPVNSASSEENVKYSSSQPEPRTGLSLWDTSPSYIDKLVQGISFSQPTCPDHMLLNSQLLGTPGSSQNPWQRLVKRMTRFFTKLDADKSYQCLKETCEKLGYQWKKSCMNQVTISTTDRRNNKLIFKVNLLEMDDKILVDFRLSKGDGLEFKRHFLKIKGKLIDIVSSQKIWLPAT
Description: Flashplate method (CHK1), measurement of the CHK1 kinase activity. It counts as biochemical. The conditions noted are these: class symbols; 'Affinity to receptors'. The method, then: CHK1 kinase is expressed for the purposes of protein production in insect cells (Sf21; S. frugiperda) and subsequent purification by affinity chromatography as fusion protein with glutathione S-transferase in a baculovirus expression vector. The cultivation, infection and digestion of the cells as well as the purification of the fusion protein by column chromatography are carried out in accordance with manufacturer-oriented generic working instructions.
The kinase activity is measured using various available measurement systems. In the scintillation proximity method (Sorg et al., J. of. Biomolecular Screening, 2002, 7, 11-19), the flashplate method or the filter binding test, the radioactive phosphorylation of a protein or peptide as substrate is measured using radioactively labelled ATP (γ^32P-ATP, (γ^33P-ATP). In the case of the presence of an inhibitory compound, a reduced radioactive signal, or none at all, can be detected. Furthermore, homogeneous time-resolved fluorescence resonance energy transfer (HTR-FRET) and fluorescence polarisation (FP) technologies are useful as assay methods (Sills et al., J. of Biomolecular Screening, 2002, 191-214).
The test plates used are 384-well streptavidin-coated Flashplates Plus® from Perkin Elmer (Cat.No. SMP410A001PK). The assay plate is equilibrated with 75 μl of assay buffer per well 30 min before commencement of the experiment. The buffer is sucked out before commencement of the experiment, and the components of the kinase reaction described below are pipetted onto the plate.
CHK1 kinase, a biotinylated substrate peptide (for example CHKtide: […]), is incubated with radioactively labelled ATP in the presence and absence of test substances at 30° Celsius and a total volume of 50 μl. The reaction is terminated using 25 μl of a 0.2 M EDTA solution. After incubation for 30 min at room temperature, the supernatants are filtered off with suction, and the wells are washed three times with 100 μl of 0.9% NaCl solution each time. The measurement of the bound radioactivity is carried out by means of a scintillation measuring instrument (Topcount NXT, Perkin-Elmer).
The full value used is the inhibitor-free kinase reaction. This should be approximately in the range 3000-4000 cpm. The pharmacological zero value used is staurosporin in a final concentration of 0.1 μM. The inhibitory values (IC50) are determined using the program RS1_MTS ( ).
Kinase reaction conditions per well:
0.15 μg of CHKtide ([…])
50 μl total volume (1-fold assay buffer reaction conditions)
Solutions used: • assay buffer:
0.1 mM Titriplex VI (EGTA
10 mM magnesium acetate 0.1% mercaptoethanol
pH=7.5 (to be set using hydrochloric acid) Bovine serum albumin (final concentration 0.1%) is not added until just before use. • stop solution:
0.2 M TitriplexIII (EDTA)
• γ^33P-ATP (Perkin-Elmer) • CHK1 kinase preparations: specific activity>50 U/mg • CHKtide solution: biotinylated peptide substrate (Biotrend) stored as stock solution (concentration 0.15 mg/ml).
As to `CC(C)(C)NS(=O)(=O)c1cccc(CNc2c(Nc3ccc4[nH]cnc4c3)c(=O)c2=O)c1` [Compound A41, 3-(1H-benzimidazol-5-ylamino)-4-[3-(tert-butylaminosulfonyl)benzylamino]cyclobut-3-ene-1,2-dione], the pIC50 was under 6.00.
For `O=c1c(NCc2cccc(O)c2)c(Nc2ccc3c(c2)NCC3)c1=O` [Compound A42, 3-(2,3-dihydro-1 H-indol-6-ylamino)-4-(3-hydroxybenzylamino)cyclobut-3-ene-1,2-dione] the value was under 6.00; for `O=c1c(NCc2ccc(F)c(F)c2)c(Nc2ccc3[nH]cnc3c2)c1=O` [Compound A43, 3-(1H-benzimidazol-5-ylamino)-4-(3,4-di-fluorobenzylamino)cyclobut-3-ene-1,2-dione], under 6.00.
For `CNS(=O)(=O)c1cccc(CNc2c(Nc3ccc4[nH]cnc4c3)c(=O)c2=O)c1` [Compound A44, 3-(1H-benzimidazol-5-ylamino)-4-[3-(methyl-aminosulfonyl)benzylamino]cyclobut-3-ene-1,2-dione] the value was under 6.00.
With `CC(=O)Nc1cccc(CNc2c(Nc3ccc4[nH]cnc4c3)c(=O)c2=O)c1` [Compound A45, 3-(1H-benzimidazol-5-ylamino)-4-(3-acetamidobenzylamino)cyclobut-3-ene-1,2-dione] the figure was under 6.00.
Take `CCn1c2ccccc2c2cc(Nc3c(NCc4cccc(O)c4)c(=O)c3=O)ccc21` [Compound A47, 3-(9-ethyl-9H-carbazol-3-ylamino)-4-(3-hydroxybenzylamino)cyclobut-3-ene-1,2-dione]: the negative-log IC50 (pIC50) is under 6.00.
For `O=c1c(NCc2cccc(O)c2)c(Nc2ccc3nccn3c2)c1=O` [Compound A49, 3-(imidazo[1,2-a]pyridin-6-ylamino)-4-(3-hydroxybenzylamino)cyclobut-3-ene-1,2-dione] the value was over 6.00; for `Cn1cnc2cc(Nc3c(NCc4cccc(O)c4)c(=O)c3=O)ccc21` [Compound A50, 3-(1-methyl-1H-benzimidazol-5-ylamino)-4-(3-hydroxybenzylamino)cyclobut-3-ene-1,2-dione], under 6.00; for `COc1cccc([C@H](C)Nc2c(Nc3ccc4c(c3)ncn4C)c(=O)c2=O)c1` [Compound A51, 3-[(S)-1-(3-methoxyphenyl)ethylamino]-4-(1-methyl-1H-benzimidazol-5-ylamino)cyclobut-3-ene-1,2-dione], under 6.00.
`Cn1cnc2ccc(Nc3c(NCc4cccc(O)c4)c(=O)c3=O)cc21` [Compound A52, 3-(3-hydroxybenzylamino)-4-(3-methyl-3H-benzimidazol-5-ylamino)cyclobut-3-ene-1,2-dione]: the pIC50 was over 6.00.
For `COc1cccc([C@@H](C)Nc2c(Nc3ccc4ncn(C)c4c3)c(=O)c2=O)c1` [Compound A53, 3-[(R)-1-(3-methoxyphenyl)ethylamino]-4-(3-methyl-3H-benzimidazol-5-ylamino)cyclobut-3-ene-1,2-dione] the value was over 6.00; for `Cc1cc2nccn2cc1Nc1c(NCc2cccc(O)c2)c(=O)c1=O` [Compound A54, 3-(3-hydroxybenzylamino)-4-(7-methyl-imidazo[1,2-a]pyridin-6-ylamino)cyclobut-3-ene-1,2-dione], under 6.00.
With `Cc1cc(Nc2c(NCc3cccc(O)c3)c(=O)c2=O)cn2ccnc12` [Compound A55, 3-(3-hydroxybenzylamino)-4-(8-methyl-imidazo[1,2-a]pyridin-6-ylamino)cyclobut-3-ene-1,2-dione] the figure was under 6.00; with `CCN(CC)CCn1cnc2ccc(Nc3c(N[C@H](C)c4cccc(OC)c4)c(=O)c3=O)cc21` [Compound A65, 3-[3-(2-diethylaminoethyl)-3H-benzimidazol-5-ylamino]-4-[(R)-1-(3-methoxyphenyl)ethyl-amino]cyclobut-3-ene-1,2-dione], under 6.00.
For the compound `CCN(CC)CCn1cnc2ccc(Nc3c(N[C@H](C)c4cccc(O)c4)c(=O)c3=O)cc21` [Compound A66, 3-[3-(2-diethylaminoethyl)-3H-benzimidazol-5-ylamino]-4-[(R)-1-(3-hydroxyphenyl)ethyl-amino]cyclobut-3-ene-1,2-dione], the pIC50 was under 6.00.
Take `COCCn1cnc2ccc(Nc3c(N[C@H](C)c4cccc(O)c4)c(=O)c3=O)cc21` [Compound A68, 3-[3-(2-methoxyethyl)-3H-benzimidazol-5-ylamino]-4-[(R)-1-(3-hydroxyphenyl)ethyl-amino]cyclobut-3-ene-1,2-dione]: the pIC50 was over 6.00.
For `COCCn1cnc2ccc(Nc3c(NCc4cccc(-c5nnn[nH]5)c4)c(=O)c3=O)cc21` [Compound A69, 3-[3-(2-methoxyethyl)-3H-benzimidazol-5-ylamino]-4-[3-(1H-tetrazol-5-yl)benzylamino]-cyclobut-3-ene-1,2-dione] the value was under 6.00.
`COCCn1cnc2ccc(Nc3c(NCc4cccc(S(N)(=O)=O)c4)c(=O)c3=O)cc21` [Compound A70, 3-[3-(2-methoxyethyl)-3H-benzimidazol-5-ylamino]-4-(3-aminosulfonylbenzylamino)-cyclobut-3-ene-1,2-dione] gave a negative logarithm of the IC50 (pIC50) of under 6.00.
With `CCN(CC)CCn1cnc2ccc(Nc3c(NCc4cccc(S(N)(=O)=O)c4)c(=O)c3=O)cc21` [Compound A71, 3-[3-(2-diethylaminoethyl)-3H-benzimidazol-5-ylamino]-4-(3-aminosulfonylbenzylamino)-cyclobut-3-ene-1,2-dione] the figure was under 6.00; with `COCCn1cnc2cc(Nc3c(N[C@H](C)c4cccc(OC)c4)c(=O)c3=O)ccc21` [Compound A72, 3-[1-(2-methoxyethyl)-1H-benzimidazol-5-ylamino]-4-[(R)-1-(3-methoxyphenyl)ethyl-amino]cyclobut-3-ene-1,2-dione], under 6.00.
For `CCN(CC)CCn1cnc2cc(Nc3c(N[C@H](C)c4cccc(O)c4)c(=O)c3=O)ccc21` [Compound A73, 3-[1-(2-diethylaminoethyl)-1H-benzimidazol-5-ylamino]-4-[(R)-1-(3-hydroxyphenyl)ethyl-amino]cyclobut-3-ene-1,2-dione] the value was under 6.00; for `COCCn1cnc2cc(Nc3c(N[C@H](C)c4cccc(O)c4)c(=O)c3=O)ccc21` [Compound A74, 3-[(R)-1-(3-hydroxyphenyl)ethylamino]-4-[1-(2-methoxyethyl)-1H-benzimidazol-5-yl-amino]cyclobut-3-ene-1,2-dione], under 6.00.
For the compound `CC(Nc1c(Nc2ccc3[nH]cnc3c2)c(=O)c1=O)c1ccc2[nH]ccc2c1` (centres unmarked) [Compound A75, 3-(1H-benzimidazol-5-ylamino)-4-[1-(1H-indol-5-yl)ethylamino]cyclobut-3-ene-1,2-dione], the pIC50 is under 6.00.
For `COc1cc(CNc2c(Nc3ccc4[nH]cnc4c3)c(=O)c2=O)ccc1F` [Compound A76, 3-(1H-benzimidazol-5-ylamino)-4-(4-fluoro-3-methoxybenzylamino)cyclobut-3-ene-1,2-dione], the pIC50 was under 6.00.
Consider `CS(=O)(=O)Nc1cccc(CNc2c(Nc3ccc4[nH]cnc4c3)c(=O)c2=O)c1` [Compound A77, 3-(1H-benzimidazol-5-ylamino)-4-(3-methyl-sulfonylaminobenzylamino)cyclobut-3-ene-1,2-dione], for which the pIC50 was under 6.00.
With `O=c1c(NCc2cc(F)c(F)c(O)c2F)c(Nc2ccc3[nH]cnc3c2)c1=O` [Compound A78, 3-(1H-benzimidazol-5-ylamino)-4-(2,4,5-trifluoro-3-hydroxybenzylamino)cyclobut-3-ene-1,2-dione] the figure was under 6.00.
